Measurements taken from US9012518B2, “Compositions and methods of delivery of pharmacological agents” (Abraxis BioScience, LLC, priority 2002, dated 2015).
Structures can show the parent of a compound that is named as a salt.

What was measured:
[1] = cited from earlier work
[2] = 22.5° C.; cited from earlier work
immobilized albumin = immobilized albumin (Homo sapiens, UniProt P02768); experiment: Competition of added albumin with binding of fluorescent paclitaxel to immobilized albumin; details: similar effect with binding to endothelial cells
immobilized albumin, sequence (P02768 25-609): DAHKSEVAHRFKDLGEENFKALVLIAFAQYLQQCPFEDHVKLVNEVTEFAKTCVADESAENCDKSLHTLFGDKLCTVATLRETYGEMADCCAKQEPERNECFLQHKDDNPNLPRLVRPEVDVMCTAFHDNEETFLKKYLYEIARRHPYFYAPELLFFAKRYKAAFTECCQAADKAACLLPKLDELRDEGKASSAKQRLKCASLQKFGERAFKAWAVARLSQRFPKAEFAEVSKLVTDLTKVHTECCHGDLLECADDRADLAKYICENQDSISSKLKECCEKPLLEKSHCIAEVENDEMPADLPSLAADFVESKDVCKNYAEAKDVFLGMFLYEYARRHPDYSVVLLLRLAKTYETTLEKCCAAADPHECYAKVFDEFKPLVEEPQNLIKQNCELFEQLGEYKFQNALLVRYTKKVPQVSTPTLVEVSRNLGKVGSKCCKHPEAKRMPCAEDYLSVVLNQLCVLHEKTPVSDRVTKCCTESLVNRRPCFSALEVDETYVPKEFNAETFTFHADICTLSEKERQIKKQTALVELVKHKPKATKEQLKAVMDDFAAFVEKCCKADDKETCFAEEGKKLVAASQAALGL
Source text: Albumin was immobilized on a microtiter plate. […] Thus invention compositions having lower amounts of albumin are preferred.

Compound: CC(=O)N(O)CCCCCNC(=O)CCC(=O)N(O)CCCCCNC(=O)CCC(=O)N(O)CCCCCN [Deferoxamine mesylate USP, N-[5-[3-[(5-aminopentyl)-hydroxycarbamoyl]-propion-amido]pentyl]-3[[5-((N-hydroxyacetamido)pentyl]-carbamoyl]propionohydroxamic acid monomethanesulfonate (salt)]
- solubility in water [1]: freely soluble in water

Compound: CC(C)c1cccc(C(C)C)c1O [propofol, 2,6-diisopropylphenol]
- maximum solubility in water [2]: 1.0 ± 0.02 µM

Compound: albumin
- binding of fluorescent paclitaxel to immobilized albumin as added albumin increased (immobilized albumin): a corresponding decrease in binding
